Each structure is given as a SMILES string.

One may read the pEC50 as the EC50 on a negative log10 scale, so that one unit is a factor of ten.

The target of the experiment is T1, human ferroportin (Homo sapiens, UniProt Q9NP59).
T1 construct: luciferase reporter (probably NanoLuc, inferred from the Nano-Glo Luciferase Assay System read-out); expressed in transfected cells; host or cells: CHO cells, stably transfected, expression induced with doxycycline
T1 sequence (Q9NP59 1-571): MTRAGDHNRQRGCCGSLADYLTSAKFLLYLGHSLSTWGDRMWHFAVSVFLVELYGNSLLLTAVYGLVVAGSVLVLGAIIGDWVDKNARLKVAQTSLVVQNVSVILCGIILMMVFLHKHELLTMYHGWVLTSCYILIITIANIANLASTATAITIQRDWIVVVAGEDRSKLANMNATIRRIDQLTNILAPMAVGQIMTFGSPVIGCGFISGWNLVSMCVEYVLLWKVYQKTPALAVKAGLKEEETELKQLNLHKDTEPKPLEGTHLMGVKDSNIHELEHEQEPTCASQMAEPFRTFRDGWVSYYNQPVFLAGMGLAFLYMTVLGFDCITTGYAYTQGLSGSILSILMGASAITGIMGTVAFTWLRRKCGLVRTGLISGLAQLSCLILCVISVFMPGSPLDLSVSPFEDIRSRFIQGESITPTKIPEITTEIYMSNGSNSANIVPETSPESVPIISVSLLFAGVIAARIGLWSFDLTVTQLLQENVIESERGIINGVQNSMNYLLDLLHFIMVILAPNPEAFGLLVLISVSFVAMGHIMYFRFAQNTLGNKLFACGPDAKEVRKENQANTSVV
Description: In-vitro ferroportin internalization assay (luciferase reporter). It counts as cell-based. The conditions noted are these: average pEC50; stably-transfected CHO cell line expressing human ferroportin tagged to a luciferase reporter; 6 h incubation with test compound. As to the method: The protocol for this assay is generally as described in WO2018/128828, incorporated herein by reference in its entirety. Functional internalization of ferroportin protein was measured using a stably-transfected CHO cell line expressing the human ferroportin tagged to a luciferase reporter. Cells were plated for 24 h in the presence of ferric ammonium citrate (FAC). Ferroportin protein expression was induced with doxycycline for 24 h. The next day, the compounds were added. Test compounds were dissolved in DMSO. Cells were incubated with the test compounds for 6 h, and subsequently luciferase activity was measured using the Nano-Glo Luciferase Assay System and Glomax (Promega, Madison, Wis.). The average pEC50 was determined for the test compounds.
A general note: A reporter such as luciferase makes a cellular process visible.
With `CCc1cc(NC2CN(c3ccccc3)C2=O)nc(-c2ccccn2)n1` (stereo not shown) [Compound 236, 3-{[6-ethyl-2-(pyridin-2-yl)pyrimidin-4-yl]amino}-1-phenylazetidin-2-one], the pEC50 is given as 5.4.

In turn, `Cc1cc(NC[C@@H](O)CN2CCCCC2)nc(-c2ccccn2)n1` [Compound 237, (2R)-1-{[6-methyl-2-(pyridin-2-yl)pyrimidin-4-yl]amino}-3-(piperidine-1-yl)propan-2-ol] gave a pEC50 of 5.4.

On to `Cc1cc(NC(=O)CN(C)c2nc(-c3ccccn3)nc3scc(-c4ccccc4)c23)no1` [Compound 238, N-(5-methyl-1,2-oxazol-3-yl)-2-{methyl[5-phenyl-2-(pyridin-2-yl)thieno[2,3-d]pyrimidin-4-yl]amino}acetamide], for which the pEC50 turned out to be 6.3.

In turn, `CNC(=O)CN(C)c1nc(-c2ccccn2)nc2sc(-c3ccccc3)cc12` [Compound 239, N-methyl-2-{methyl[6-phenyl-2-(pyridin-2-yl)thieno[2,3-d]pyrimidin-4-yl]amino}acetamide] came in with a pEC50 of 5.8.

Regarding `CCNC(=O)CN(C)c1nc(-c2ccccn2)nc2sc(-c3ccccc3)cc12` [Compound 240, N-ethyl-2-{methyl[6-phenyl-2-(pyridin-2-yl)thieno[2,3-d]pyrimidin-4-yl]amino}acetamide], the pEC50 was less than 5.0.

`COCCNc1nc(-c2ccccn2)nc2sc(C)c(C)c12` [Compound 241, N-(2-methoxyethyl)-5,6-dimethyl-2-(pyridin-2-yl)thieno[2,3-d]pyrimidin-4-amine] returned a pEC50 of 6.3.

`Cc1sc2nc(-c3ccccn3)nc(N(C)CC(=O)Nc3cccc(F)c3)c2c1C` [Compound 242, 2-{[5,6-dimethyl-2-(pyridin-2-yl)thieno[2,3-d]pyrimidin-4-yl](methyl)amino}-N-(3-fluorophenyl)acetamide] gave a pEC50 of 7.

As for `Cc1sc2nc(-c3ccccn3)nc(NCCNc3ccccn3)c2c1C` [Compound 243, N2-[5,6-dimethyl-2-(pyridin-2-yl)thieno[2,3-d]pyrimidin-4-yl]-N1-(pyridin-2-yl)ethane-1,2-diamine], the negative logarithm of the EC50 (pEC50) was 6.4.

For `CCN(CCO)c1nc(-c2ccccn2)nc2sc(C)c(-c3ccccc3)c12` [Compound 244, 2-{ethyl[6-methyl-5-phenyl-2-(pyridin-2-yl)thieno[2,3-d]pyrimidin-4-yl]amino}ethan-1-ol], the pEC50 worked out at 5.4.

Turning to `CC1CC(=O)NCCN1c1nc(-c2ccccn2)nc2scc(-c3ccccc3)c12` (stereo not shown) [Compound 245, 7-methyl-1-[5-phenyl-2-(pyridin-2-yl)thieno[2,3-d]pyrimidin-4-yl]-1,4-diazepan-5-one], the pEC50 is given as 5.5.

Compound `CN(CCCc1n[nH]c(N)c1C#N)c1nc(-c2ccccn2)nc2scc(-c3ccccc3)c12` [Compound 246, 5-amino-3-(3-{methyl[5-phenyl-2-(pyridin-2-yl)thieno[2,3-d]pyrimidin-4-yl]amino}propyl)-1H-pyrazole-4-carbonitrile] gave a negative logarithm of the EC50 (pEC50) of 6.2.

For the compound `COc1ccc(NC(=O)[C@@H](C(C)C)N(C)c2nc(-c3ccccn3)nc3c2CCC3)cn1` [Compound 315, (2R)-N-(6-methoxypyridin-3-yl)-3-methyl-2-{methyl[2-(pyridin-2-yl)-5H,6H,7H-cyclopenta[d]pyrimidin-4-yl]amino}butanamide], the pEC50 is 7.3.

Regarding `COc1ccc(NC(=O)CN(C)c2nc(-c3cc4cn[nH]c4cn3)nc3c2CCC3)nc1` [Compound 334, N-(5-methoxypyridin-2-yl)-2-[methyl(2-{1H-pyrazolo[3,4-c]pyridin-5-yl}-5H,6H,7H-cyclopenta[d]pyrimidin-4-yl)amino]acetamide], the negative logarithm of the EC50 (pEC50) was 7.5.

`CN(C)CCOc1ccnc(-c2nc3c(c(N(C)CC(=O)NC(C)(C)C)n2)CCC3)c1` [Compound 417, N-tert-butyl-2-[(2-{4-[2-(dimethylamino)ethoxy]pyridin-2-yl}-5H,6H,7H-cyclopenta[d]pyrimidin-4-yl)(methyl)amino]acetamide] displayed a pEC50 of 7.7.

Take `CN(CC(=O)N1CC2CC(C2)C1)c1nc(-c2cc(OCCO)ccn2)nc2c1CCC2` [Compound 433, 1-{3-azabicyclo[3.1.1]heptan-3-yl}-2-({2-[4-(2-hydroxyethoxy)pyridin-2-yl]-5H,6H,7H-cyclopenta[d]pyrimidin-4-yl}(methyl)amino)ethan-1-one]: the pEC50 amounted to 8.1.

Turning to `CN(CC(=O)NC(C)(C)C)c1nc(-c2cc(OC[C@H](O)CO)ccn2)nc2c1CCC2` [Compound 484, N-tert-butyl-2-[(2-{4-[(2R)-2,3-dihydroxypropoxy]pyridin-2-yl}-5H,6H,7H-cyclopenta[d]pyrimidin-4-yl)(methyl)amino]acetamidede], the pEC50 is recorded as 7.7.

Source of the values: patent US20230226074A1, “METHODS OF USE FOR PYRIMIDINES AS FERROPORTIN INHIBITORS” (Global Blood Therapeutics, Inc., priority 2020, published 2023).
